Source: article PMC5218480 (PLoS ONE, 2017)

System: MV-4-11 cells
Test: Gene expression microarray analysis (Affymetrix PrimeView) and GSEA
Type: cell-based, human
Set-up: RFU PODN (11730768_x_at) / Fold change /veh PODN (11730768_x_at) / RFU LINC00158 (11744669_a_at) / Fold change /veh LINC00158 (11744669_a_at) / RFU DUSP10 (11751237_a_at) / Fold change /veh DUSP10 (11751237_a_at) / RFU ID3 (11757404_x_at) / Fold change /veh ID3 (11757404_x_at) / RFU PLEKHG5 (11737974_s_at) / Fold change /veh PLEKHG5 (11737974_s_at) / RFU LRRC4B (11730491_at) / Fold change /veh LRRC4B (11730491_at) / RFU GIMAP4 (11747438_a_at) / Fold change /veh GIMAP4 (11747438_a_at) / RFU KRT8 (11758183_x_at) / Fold change /veh KRT8 (11758183_x_at) / RFU CNN1 (11734310_a_at) / Fold change /veh CNN1 (11734310_a_at) / RFU VPS37D (11726825_at) / Fold change /veh VPS37D (11726825_at) / RFU C10orf10 (11716522_x_at) / Fold change /veh C10orf10 (11716522_x_at) / RFU KIR2DL2 /// KIR2DL4 /// KIR2DL5A /// KIR2DL5B /// KIR2DS1 /// KIR2DS2 /// KIR2DS3 /// KIR2DS4 /// KIR3DL3 /// KIR3DL3 /// KIR3DS1 (11738374_at) / Fold change /veh KIR2DL2 /// KIR2DL4 /// KIR2DL5A /// KIR2DL5B /// KIR2DS1 /// KIR2DS2 /// KIR2DS3 /// KIR2DS4 /// KIR3DL3 /// KIR3DL3 /// KIR3DS1 (11738374_at) / RFU C1QL1 (11718748_at) / Fold change /veh C1QL1 (11718748_at) / RFU TMPRSS4 (11747572_a_at) / Fold change /veh TMPRSS4 (11747572_a_at) / RFU HAMP (11756126_x_at) / Fold change /veh HAMP (11756126_x_at) / RFU RNFT2 (11725882_a_at) / Fold change /veh RNFT2 (11725882_a_at) / RFU NR4A2 (11747474_a_at) / Fold change /veh NR4A2 (11747474_a_at) / RFU ABCC12 (11746883_a_at) / Fold change /veh ABCC12 (11746883_a_at) / RFU TMEM136 (11760407_x_at) / Fold change /veh TMEM136 (11760407_x_at) / RFU CLDN22 /// WWC2 (11732394_at) / Fold change /veh CLDN22 /// WWC2 (11732394_at) / RFU HLA-DPB1 (11760878_x_at) / Fold change /veh HLA-DPB1 (11760878_x_at) / RFU SPINT1 (11716480_a_at) / Fold change /veh SPINT1 (11716480_a_at) / RFU GAP43 (11754022_s_at) / Fold change /veh GAP43 (11754022_s_at) / RFU A4GNT (11735810_at) / Fold change /veh A4GNT (11735810_at) / RFU PRB3 (11715151_x_at) / Fold change /veh PRB3 (11715151_x_at) / RFU TUBB4B (11761932_at) / Fold change /veh TUBB4B (11761932_at) / RFU CAPN14 (11732068_a_at) / Fold change /veh CAPN14 (11732068_a_at) / RFU TMCC2 (11721928_a_at) / Fold change /veh TMCC2 (11721928_a_at) / RFU IRGQ (11745062_a_at) / Fold change /veh IRGQ (11745062_a_at) / RFU FAM174B (11720279_a_at) / Fold change /veh FAM174B (11720279_a_at) / RFU TMPRSS4 (11748680_a_at) / Fold change /veh TMPRSS4 (11748680_a_at) / RFU FAM212B (11763350_a_at) / Fold change /veh FAM212B (11763350_a_at) / RFU PLEKHG5 (11743358_a_at) / Fold change /veh PLEKHG5 (11743358_a_at) / RFU ZSCAN30 (11745921_a_at) / Fold change /veh ZSCAN30 (11745921_a_at) / RFU CMKLR1 (11741424_a_at) / Fold change /veh CMKLR1 (11741424_a_at) / RFU LOC101060620 /// MAPK8IP1 (11723275_at) / Fold change /veh LOC101060620 /// MAPK8IP1 (11723275_at) / RFU SPTSSB (11747773_x_at) / Fold change /veh SPTSSB (11747773_x_at) / RFU PRSS12 (11739890_at) / Fold change /veh PRSS12 (11739890_at) / RFU BIN1 (11741810_x_at) / Fold change /veh BIN1 (11741810_x_at) / RFU WNT11 (11732464_a_at) / Fold change /veh WNT11 (11732464_a_at) / RFU C10orf10 (11716521_a_at) / Fold change /veh C10orf10 (11716521_a_at) / RFU C5orf56 (11738089_at) / Fold change /veh C5orf56 (11738089_at) / RFU CYB561 (11721691_x_at) / Fold change /veh CYB561 (11721691_x_at) / RFU ANKRD19P (11752326_a_at) / Fold change /veh ANKRD19P (11752326_a_at) / RFU OR2T12 /// OR2T33 /// OR2T8 (11738714_s_at) / Fold change /veh OR2T12 /// OR2T33 /// OR2T8 (11738714_s_at) / RFU VCAN (11748164_a_at) / Fold change /veh VCAN (11748164_a_at) / RFU JSRP1 (11732532_at) / Fold change /veh JSRP1 (11732532_at) / RFU KRTAP10-11 (11738290_x_at) / Fold change /veh KRTAP10-11 (11738290_x_at) / RFU MYO3A (11730013_a_at) / Fold change /veh MYO3A (11730013_a_at) / RFU EBF3 (11725865_a_at) / Fold change /veh EBF3 (11725865_a_at) / RFU CAMK2N1 (11719241_x_at) / Fold change /veh CAMK2N1 (11719241_x_at) / RFU C5orf56 (11738088_a_at) / Fold change /veh C5orf56 (11738088_a_at) / RFU OLFML3 (11715873_a_at) / Fold change /veh OLFML3 (11715873_a_at) / RFU LOC100653217 /// NTM (11731650_a_at) / Fold change /veh LOC100653217 /// NTM (11731650_a_at) / RFU MAPK11 (11762145_a_at) / Fold change /veh MAPK11 (11762145_a_at) / RFU FIZ1 (11724087_x_at) / Fold change /veh FIZ1 (11724087_x_at) / RFU OASL (11726364_x_at) / Fold change /veh OASL (11726364_x_at) / RFU SOX15 (11748057_x_at) / Fold change /veh SOX15 (11748057_x_at) / RFU CD79A (11719716_a_at) / Fold change /veh CD79A (11719716_a_at) / RFU HIST1H1D (11736915_at) / Fold change /veh HIST1H1D (11736915_at) / RFU CASKIN2 (11723855_a_at) / Fold change /veh CASKIN2 (11723855_a_at) / RFU LOC730098 (11760151_x_at) / Fold change /veh LOC730098 (11760151_x_at) / RFU OR4N2 (11742367_at) / Fold change /veh OR4N2 (11742367_at) / RFU PRRT2 (11749266_a_at) / Fold change /veh PRRT2 (11749266_a_at) / RFU SNX32 (11753110_a_at) / Fold change /veh SNX32 (11753110_a_at) / RFU CDHR5 (11726645_a_at) / Fold change /veh CDHR5 (11726645_a_at) / RFU RCAN1 (11760418_a_at) / Fold change /veh RCAN1 (11760418_a_at) / RFU FAM167A (11723789_a_at) / Fold change /veh FAM167A (11723789_a_at) / RFU FAM26E (11764081_at) / Fold change /veh FAM26E (11764081_at) / RFU ISYNA1 (11749810_s_at) / Fold change /veh ISYNA1 (11749810_s_at) / RFU ACY1 (11761880_at) / Fold change /veh ACY1 (11761880_at) / RFU 11764098_at / Fold change /veh 11764098_at / RFU SAMD14 (11745864_x_at) / Fold change /veh SAMD14 (11745864_x_at) / RFU NPB (11741838_a_at) / Fold change /veh NPB (11741838_a_at) / RFU TMPRSS6 (11731388_a_at) / Fold change /veh TMPRSS6 (11731388_a_at) / RFU KRTAP10-2 (11738614_at) / Fold change /veh KRTAP10-2 (11738614_at) / RFU ARHGAP8 /// PRR5-ARHGAP8 (11727945_x_at) / Fold change /veh ARHGAP8 /// PRR5-ARHGAP8 (11727945_x_at) / RFU KRTAP5-7 /// NADSYN1 (11734609_at) / Fold change /veh KRTAP5-7 /// NADSYN1 (11734609_at) / RFU RASL12 (11751679_a_at) / Fold change /veh RASL12 (11751679_a_at) / RFU CDKN2B (11736163_a_at) / Fold change /veh CDKN2B (11736163_a_at) / RFU PRF1 (11729649_at) / Fold change /veh PRF1 (11729649_at) / RFU, ZNF638 /// ZNF638-IT1 / Fold change vs veh, ZNF638 /// ZNF638-IT1 / RFU, PANK3 / Fold change vs veh, PANK3 / RFU, SH3YL1 / Fold change vs veh, SH3YL1 / RFU, ZEB2 / Fold change vs veh, ZEB2 / RFU, NRIP1 / Fold change vs veh, NRIP1 / RFU, PTTG1IP / Fold change vs veh, PTTG1IP / RFU, CAPN2 / Fold change vs veh, CAPN2 / RFU, MED14 / Fold change vs veh, MED14 / RFU, SNORA58 / Fold change vs veh, SNORA58 / RFU, C1orf63 / Fold change vs veh, C1orf63 / RFU, LRRFIP1 / Fold change vs veh, LRRFIP1 / RFU, NDUFAF7 / Fold change vs veh, NDUFAF7 / RFU, SLC12A2 / Fold change vs veh, SLC12A2 / RFU, IBTK / Fold change vs veh, IBTK / RFU, ESF1 / Fold change vs veh, ESF1 / Fold change vs veh, TMEM50B / RFU, TAOK1 / Fold change vs veh, TAOK1 / RFU, ACBD3 / Fold change vs veh, ACBD3 / RFU, TMA16 / Fold change vs veh, TMA16 / RFU, RWDD3 / Fold change vs veh, RWDD3 / RFU, BCAT1 / Fold change vs veh, BCAT1 / RFU, EDEM3 / Fold change vs veh, EDEM3 / RFU, TMEM33 / Fold change vs veh, TMEM33 / RFU, WDR75 / Fold change vs veh, WDR75 / RFU, AHCTF1 / Fold change vs veh, AHCTF1 / RFU, TFRC / Fold change vs veh, TFRC / RFU, ZDHHC17 / Fold change vs veh, ZDHHC17 / RFU, NOM1 / Fold change vs veh, NOM1 / RFU, ARL8B / Fold change vs veh, ARL8B / RFU, ZBTB11 / Fold change vs veh, ZBTB11 / RFU, TAMM41 / Fold change vs veh, TAMM41 / RFU, KIAA1704 /// LOC100996395 / Fold change vs veh, KIAA1704 /// LOC100996395 / RFU, ING1 / Fold change vs veh, ING1 / RFU, TRMT61B / Fold change vs veh, TRMT61B / RFU, FUBP3 / Fold change vs veh, FUBP3 / RFU, TP53 / Fold change vs veh, TP53 / RFU, TNKS2 / Fold change vs veh, TNKS2 / RFU, ZFP14 / Fold change vs veh, ZFP14 / RFU, ACTR2 / Fold change vs veh, ACTR2 / RFU, PPP3R1 / Fold change vs veh, PPP3R1 / RFU, PIK3R1 / Fold change vs veh, PIK3R1 / RFU, HNRNPA1 / Fold change vs veh, HNRNPA1 / RFU, RNF170 / Fold change vs veh, RNF170 / RFU, ZNF28 / Fold change vs veh, ZNF28 / RFU, RNGTT / Fold change vs veh, RNGTT / RFU, OGT / Fold change vs veh, OGT / RFU, BRD1 / Fold change vs veh, BRD1 / RFU, MARS / Fold change vs veh, MARS / RFU, ZNF655 / Fold change vs veh, ZNF655 / RFU, FAHD1 / Fold change vs veh, FAHD1 / RFU, BDP1 / Fold change vs veh, BDP1 / RFU, LRRCC1 / Fold change vs veh, LRRCC1 / RFU, ARID1A / Fold change vs veh, ARID1A / RFU, ZNF146 / Fold change vs veh, ZNF146 / RFU, ZNF330 / Fold change vs veh, ZNF330 / RFU, GPN3 / Fold change vs veh, GPN3 / RFU, C9orf123 / Fold change vs veh, C9orf123 / RFU, N4BP2L2 / Fold change vs veh, N4BP2L2 / RFU, ARFIP1 / Fold change vs veh, ARFIP1 / RFU, FAM179B / Fold change vs veh, FAM179B / RFU, BCL10 / Fold change vs veh, BCL10 / RFU, UHRF1BP1L / Fold change vs veh, UHRF1BP1L / RFU, BET1 / Fold change vs veh, BET1 / RFU, CNOT2 / Fold change vs veh, CNOT2 / RFU, ZNF268 / Fold change vs veh, ZNF268 / Fold change vs veh, ZNF507 / RFU, DGCR2 / Fold change vs veh, DGCR2 / RFU, WDSUB1 / Fold change vs veh, WDSUB1 / Fold change vs veh, HSP90B1 /// MIR3652 / RFU, ADSS / Fold change vs veh, ADSS / RFU, GK / Fold change vs veh, GK / RFU, ZNF148 / Fold change vs veh, ZNF148 / RFU, TAF9 / Fold change vs veh, TAF9 / RFU, SLC1A5 / Fold change vs veh, SLC1A5 / RFU, SLMO2 / Fold change vs veh, SLMO2 / RFU, ABCC4 / Fold change vs veh, ABCC4 / RFU, LOC101060439 /// RAP1B / Fold change vs veh, LOC101060439 /// RAP1B / RFU, RFX7 / Fold change vs veh, RFX7 / RFU, GTPBP10 / Fold change vs veh, GTPBP10 / RFU, CNEP1R1 / Fold change vs veh, CNEP1R1 / RFU, BIVM-ERCC5 /// ERCC5 / Fold change vs veh, BIVM-ERCC5 /// ERCC5 / RFU, ILF3 / Fold change vs veh, ILF3 / RFU 11762660_at / Fold change /veh 11762660_at / RFU VCAN (11757783_s_at) / Fold change /veh VCAN (11757783_s_at) / RFU DDX43 (11728927_at) / Fold change /veh DDX43 (11728927_at) / RFU KRT8 (11758188_x_at) / Fold change /veh KRT8 (11758188_x_at) / RFU NKD1 (11759106_at) / Fold change /veh NKD1 (11759106_at) / RFU SRD5A1 (11742802_a_at) / Fold change /veh SRD5A1 (11742802_a_at) / RFU TPSAB1 /// TPSB2 (11721975_s_at) / Fold change /veh TPSAB1 /// TPSB2 (11721975_s_at) / RFU GSTM3 (11746129_a_at) / Fold change /veh GSTM3 (11746129_a_at) / RFU IL23R (11737362_x_at) / Fold change /veh IL23R (11737362_x_at) / RFU TMEM51 (11727254_a_at) / Fold change /veh TMEM51 (11727254_a_at) / RFU PIWIL2 (11732686_x_at) / Fold change /veh PIWIL2 (11732686_x_at) / RFU ORM1 (11744905_x_at) / Fold change /veh ORM1 (11744905_x_at) / RFU CCDC152 (11743942_at) / Fold change /veh CCDC152 (11743942_at) / RFU ECM1 (11717891_a_at) / Fold change /veh ECM1 (11717891_a_at) / RFU IL23R (11748794_a_at) / Fold change /veh IL23R (11748794_a_at) / RFU TNFAIP8L3 (11732012_x_at) / Fold change /veh TNFAIP8L3 (11732012_x_at) / RFU MBOAT4 (11741988_at) / Fold change /veh MBOAT4 (11741988_at) / RFU 11764193_at / Fold change /veh 11764193_at / RFU TMEM53 (11763286_at) / Fold change /veh TMEM53 (11763286_at) / RFU MAGEB2 (11727129_at) / Fold change /veh MAGEB2 (11727129_at) / RFU TMEM200A (11744735_a_at) / Fold change /veh TMEM200A (11744735_a_at) / RFU CCDC152 (11751479_a_at) / Fold change /veh CCDC152 (11751479_a_at) / RFU FAM211A (11726209_a_at) / Fold change /veh FAM211A (11726209_a_at) / RFU RGS16 (11746705_a_at) / Fold change /veh RGS16 (11746705_a_at) / RFU VCAN (11755009_s_at) / Fold change /veh VCAN (11755009_s_at) / RFU RHOB (11743442_s_at) / Fold change /veh RHOB (11743442_s_at) / RFU RGS16 (11720943_a_at) / Fold change /veh RGS16 (11720943_a_at) / RFU RGS16 (11720944_at) / Fold change /veh RGS16 (11720944_at) / RFU, VPS4B / Fold change vs veh, VPS4B / RFU, CREB1 / Fold change vs veh, CREB1 / RFU, DNAJC13 / Fold change vs veh, DNAJC13 / RFU, GNAQ / Fold change vs veh, GNAQ / RFU, CDK5R1 / Fold change vs veh, CDK5R1 / RFU, ZRANB3 / Fold change vs veh, ZRANB3 / RFU, CUL4A / Fold change vs veh, CUL4A / RFU, CCNY / Fold change vs veh, CCNY / RFU, UFL1 / Fold change vs veh, UFL1 / RFU, COG3 / Fold change vs veh, COG3 / RFU, DIAPH2 / Fold change vs veh, DIAPH2 / RFU, SKA2 / Fold change vs veh, SKA2 / RFU, AFF3 / Fold change vs veh, AFF3 / RFU, LMF1 / Fold change vs veh, LMF1 / RFU, IPO11 / Fold change vs veh, IPO11 / RFU, DFFB / Fold change vs veh, DFFB / RFU, FOXP1 / Fold change vs veh, FOXP1 / RFU, CARD8 / Fold change vs veh, CARD8 / RFU, STRN3 / Fold change vs veh, STRN3 / RFU, ADK / Fold change vs veh, ADK / RFU, RASSF2 / Fold change vs veh, RASSF2 / RFU, WIPF1 / Fold change vs veh, WIPF1 / RFU, LARP1B / Fold change vs veh, LARP1B / RFU, RASA1 / Fold change vs veh, RASA1 / RFU, RB1 / Fold change vs veh, RB1 / RFU, PPFIA1 / Fold change vs veh, PPFIA1 / RFU, MAT2A / Fold change vs veh, MAT2A / RFU, CCT5 / Fold change vs veh, CCT5 / RFU, WDR92 / Fold change vs veh, WDR92 / RFU, CUX1 / Fold change vs veh, CUX1 / RFU, TTC7A / Fold change vs veh, TTC7A / RFU, TMEM135 / Fold change vs veh, TMEM135 / RFU, DEPTOR / Fold change vs veh, DEPTOR / RFU, CPM / Fold change vs veh, CPM / RFU, DNAJB6 / Fold change vs veh, DNAJB6 / RFU, CACNA2D3 / Fold change vs veh, CACNA2D3 / RFU, DTX4 / Fold change vs veh, DTX4 / RFU, TFCP2 / Fold change vs veh, TFCP2 / RFU, GMCL1 /// GMCL1P1 / Fold change vs veh, GMCL1 /// GMCL1P1 / RFU, AEBP2 / Fold change vs veh, AEBP2 / RFU, SNHG1 /// SNORD22 /// SNORD25 /// SNORD26 /// SNORD27 /// SNORD28 /// SNORD29 /// SNORD31 / Fold change vs veh, SNHG1 /// SNORD22 /// SNORD25 /// SNORD26 /// SNORD27 /// SNORD28 /// SNORD29 /// SNORD31 / Fold change (Aza/veh), C12orf56 (ProbeSet 11735607_a_at) / Fold change (ACY-1035/veh), C12orf56 (ProbeSet 11735607_a_at) / Fold change (Aza/veh), FGFR1OP (ProbeSet 11751329_s_at) / Fold change (ACY-1035/veh), FGFR1OP (ProbeSet 11751329_s_at) / Fold change (Aza/veh), VPS36 (ProbeSet 11739960_a_at) / Fold change (ACY-1035/veh), VPS36 (ProbeSet 11739960_a_at) / RFU SYPL1 (11715823_x_at) / Fold change /veh SYPL1 (11715823_x_at) / RFU IGFBP7 (11715501_s_at) / Fold change /veh IGFBP7 (11715501_s_at) / RFU REEP3 (11722064_at) / Fold change /veh REEP3 (11722064_at) / RFU IGLL1 (11728026_x_at) / Fold change /veh IGLL1 (11728026_x_at): dose or concentration left out as unconfirmed
Details: ProbeSet 11731610_x_at; LIST B

In the case of `Nc1ccc(-c2cccs2)cc1NC(=O)c1ccc2c(c1)cc(C1CC1)n2CCN1CCOCC1` [ACY-1035], the “RFU, KIAA1704 /// LOC100996395” value was 79.91 RFU.
